Entries after “also recorded” stand apart in the source; their conditions may differ. Like-named read-outs stand apart in the source and are kept apart here.
Experiments:
[1] = tested on: PC12 cells; assay: cells; settings: Rattus norvegicus, PC-12, 1 h, read-out: [^3 H]-Dopamine Uptake (PC12)
Description: The effects of various pharmacologic agents were tested to determine whether the properties of the protein encoded by the mpp^res cDNA corresponded with those expected for the chromaffin granule amine transport protein. […] The cells were pre-incubated in Krebs-Ringer buffer containing 1 μM pargyline and the dose of the drug indicated for 15 minutes. […] Values were determined from three separate wells and the mean was expressed as percent of control uptake±standard deviation.

[2] = tested on: amines and tyrosine hydroxylase; settings: cited from earlier work
[3] = tested on: MPP^+ -resistant CHO cells; assay: MTT cytotoxicity assay in MPP+-resistant transfected CHO cells; format: cell-based, Chinese hamster; settings: 1 μM reserpine, MPP+-resistant CHO cells
Description: Differential susceptibility to the respiratory complex I inhibitors MPP^+ and rotenone was shown by measuring toxicity by measuring general cell dehydrogenase activity with reduction of a tetrazolium dye (MTT) in a spectrophotometric plate assay as described by Hansen et al., J. Immunol. Methods 119:203-210 (1989). Briefly, a stock solution of MTT (3,(4,5-dimethylthiazol-2-yl)2,5-diphenyltetrazolium bromide) was dissolved at a concentration of 5 mg/ml in sterile phosphate buffered saline at room temperature. To each well was added 25 μl of the stock solution. After two hours of incubation at 37° C., 100 μl of extraction buffer (20% w/v of SDS in a solution of 50% each dimethylformamide and demineralized water with the pH adjusted to 4.7 with acetic acid and HCl). After an overnight incubation at 37° C., the optical densities at 570 nm were measured using a multiscanner, employing the extraction buffer as the blank. This assay was carried out in triplicate on 96-well plates (NUNC, Denmark). MPP^+ and rotenone at the concentrations indicated in FIG. 6a and 6b, respectively, was added to wild-type and MPP^+ -resistant CHO cells at approximately 50% confluence, and toxicity was assayed after 2-3 days by measuring general cell dehydrogenase activity with the reduction of the tetrazolium dye MTT (3,(4,5-dimethylthiazol-2-yl)2,5-diphenyl-tetrazolium bromide). After addition of the dye at a final concentration of 1 mg/ml, the cells were incubated for two hours at 37° C. and the formazan product was solubilized in 10% sodium dodecyl sulfate (SDS). The plates were maintained at 37° C. for an additional twenty hours and the optical density was determined in an ELISA plate reader at a test wavelength of 570 nm, a reference wavelength of 630 nm and a calibration setting of 1.99. All determinations were performed in triplicate and expressed as the mean, with the error bars representing standard deviation (FIG. 6a and 6b).
To determine whether an alteration in the process of respiration was responsible for the resistance to MPP^+, the effects of other known respiratory inhibitors were examined. […] Thus, if the resistance were due to a change in the site of action, the transfected cells should also show resistance to rotenone. […] However, rotenone is considered to have its selected effect on respiration at relatively low doses, and an additional, less specific effect at higher doses.
Therefore, the toxicity of MPP^+ to transfected cells in the presence of 1 μM reserpine was examined.

[4] = tested on: vesicular amine transport protein; settings: cited from earlier work
[5] = tested on: transfected CHO cells; assay: Survival/selection/growth of transfected CHO cells in MPP+; format: cell-based, Chinese hamster; settings: reserpine concentration not stated
Description: Using the above methods, the PC12 cDNA library constructed in the plasmid expression vector CDM8 was transfected into CHO cells. Using the selectable marker RSV- neo (Walker, Weizmann Institute, Israel), […] independent stable transformants were obtained after selection in the neomycin analogue G418 at 400 μg/ml effective dose. These cells were then selected at 40% confluence in 1 mM MPP^+. […] However, at four weeks, a colony of cells without refractile inclusions appeared and rapidly covered the plate. The apparently normal growth of these cells in the presence of 1 mM MPP^+ stands in marked contrast to all of the resistant clones obtained without transfection, which grew very slowly if at all. […] However, at 1 mM MPP^+, the resistant cells did show some toxicity, particularly when the assay was performed at higher cell density.
To identify the cDNA sequences responsible for conferring resistance to MPP^+, integrated plasmids were rescued from the primary CHO transformant obtained as described above in Example 1. […] The primary MPP^+ -resistant CHO transformant was amplified in culture and following cell lysis in 5M guanidinium isothiocyanate, the high molecular weight DNA prepared by repeated precipitation in isopropanol. After digestion with Not I, which cleaves the CDM8 vector once downstream of the cDNA insertion site as well as at rare eight-nucleotide recognition sites elsewhere in the genome, the DNA was religated and transformed into E. coli by electroporation as described by Stern-Bach et al., J. Biol. Chem. 265:3961-3966 (1990). Four pools of the derived plasmids containing approximately 50 colonies each were transfected into CHO cells and after two days were selected in 1 mM MPP^+. Four weeks later, one pool gave rise to several MPP^+ -resistant colonies, two pools gave rise to 1-2 colonies and the fourth pool and CDM8 vector gave rise to no healthy, resistant colonies. Restriction enzyme analysis of the plasmids in the pool conferring the highest frequency of resistance to MPP^+ indicated three independent clones of 1.0, 1.3 and 2.5 kb. […]

Compound: COC(=O)[C@H]1[C@H]2C[C@@H]3c4[nH]c5cc(OC)ccc5c4CCN3C[C@H]2C[C@@H](OC(=O)c2cc(OC)c(OC)c(OC)c2)[C@@H]1OC [reserpine]
- activity at 1 µM [1]: 23 ± 2%
- potentiation of amine depletion and reduction in tyrosine hydroxylase by MPP+ [2]: can potentiate the depletion of amines and reduction in tyrosine hydroxylase by MPP^+
- reversal of MPP+ resistance [3]: Dramatic reversion to wild-type CHO sensitivity
- inhibition of vesicular amine transport [4]: inhibits
- inhibition of vesicular amine transport ([4]; listed as Reserpine): inhibit this transport activity
- reversal of MPP+ resistance of transformants [5]: reversal of MPP^+ resistance; also recorded: reversible; also recorded: reversed

Reference: patent US5688936A, “Vesicle membrane transport proteins” (priority 1993, dated 1997)
